Measurements as given in patent US20110125050A1, “Multiple-Electrode and Metal-Coated Probes” (THE TRUSTEES OF THE UNIVERSITY OF PENNSYLVANIA, priority 2004, published 2011).

Assays:
GABAA receptor = assay: CNP-recorded membrane potential of HT-22 cells during pharmacological stimulation (GABA, bicuculline); assay type: cell-based, mouse; settings: for hyperpolarization from the RMP: 12 mM GABA in bath; for time for cell to return to its RMP: constant HBSS perfusion
Description: Recording Cellular Responses to Pharmacological Stimuli. In addition to monitoring predictable cell membrane potential changes caused by ionic enrichment, CNPs were utilized to electrically record cell responses to pharmacological stimuli. Y-aminobutyric acid (GABA), a principal inhibitory neurotransmitter in the mammalian central nervous system which acts as an agonist for the membrane-bound GABAA receptor, was administered. When GABA binds to the GABAA receptor, the cell hyperpolarizes as a result of Cl− ion influx due to the opening of the ligand-gated Cl− ion channel. However, the hyperpolarization can be blocked by perfusing cells with bicuculline (BIC), a competitive antagonist for the GABAA receptor which binds to the GABAA receptor and prevents it from opening even in the presence of GABA.
FIG. 10A illustrates how an HT-22 cell responded when GABA was added to the cell bath (12 mM GABA in bath, arrow).
Cell Culture and Preparation. […] Cells were grown in Dulbecco's Modified Eagle Medium (DMEM, high glucose) supplemented with 10% fetal bovine serum (FBS) and 1% antibiotics. The cells were plated on 12 mm cover slips 48 hrs prior to the electrophysiology measurements. The cells on the cover slips were incubated in HBSS (with calcium and magnesium) at room temperature for 10 min prior to measurements. The cover slips were subsequently placed in an open diamond perfision bath (Warner Instruments Corp., RC-22C) positioned on an upright microscope (Nikon eclipse E600FN, 40× water-immersion lens, Burleigh Gibraltar fixed-stage platform) located atop a vibration-isolation table. Cells were routinely perfised with HBSS at a flow rate of 1.0 mllmin.
Electrophysiology. Membrane potential measurements were recorded with an Axon AxoClamp-2A amplifier equipped with a headstage for high resistance electrodes (Axon HS2-XO.OlMU) and Digidata 1322A digitizer (Axon Instruments/Molecular Devices, Sunnyvale, Calif.). Experimental protocols were controlled and data acquired by a personal computer using the Clampex 8.2 software (Axon Instruments). CNPs were inserted into a standard electrode holder until the metal wire of the holder came in contact with the inner carbon film of the CNP. A slight positive pressure was applied through the holder's perfixion port to keep external solution from filling the hollow CNP by capillarity. A micromanipulator (Narishige MHW-3) was used to manipulate and position the CNP electrodes during the electrophysiology measurements. […] Recorded electrical measurements were not adjusted to compensate for differences in extracellular and intracellular junction potentials.

HT-22 cells = assay: CNP-recorded membrane potential of HT-22 cells during ionic (K+) enrichment; assay type: cell-based, mouse; settings: for depolarization: KCl added to bath
Description: Because the cell membrane is highly permeable to potassium ions (K^+), an increase or decrease in extracellular K+ concentration will, respectively, cause a resting cell to depolarize (membrane potential becoming more positive) or hyperpolarize (membrane potential becoming more negative). Utilizing CNPs, variations in membrane potential were monitored over tens of minutes. FIG. 8A is a recording of membrane potential from an HT-22 cell during perfusion intervals with normal HBSS and K+-enriched HBSS (additional 5 mM K^+). […] After approximately 2 min at higher extracellular K^+, the cell was perfused with normal HBSS and the cell slowly returned to its RMP.
Next, a CNP was used to measure changes in membrane potential during repetitive extracellular administration of KCl [FIG. 8B]. After penetrating the cell, as indicated by the arrow in FIG. 8B, the CNP measured a stable RMP under normal HBSS perfusion (Emp=−68 mV). […] Under constant perfusion in normal HBSS, the membrane potential returned to its original value after […]. The results were reproducible with high fidelity.
FIG. 8C is a representation of potential variations as a function of time during the administration of HBSS and the varied K+-enrichment of HBSS (additional 5 and 15 mM K^+). […] As normal HBSS perfusion brought the bath back to its initial K+ concentration, the cell returned to its RMP in ˜90 seconds.
Lastly, CNPs were used to electrically record a cell response to sequential pharmacological stimulation and ionic enrichment. FIG. 10B represents the opposing membrane responses to such stimuli over time. […] Once the GABA was washed away under constant HBSS perfision, the cell returned to its RMP in 60 sec. […] As excess KCl was washed away under constant HBSS perfusion, the cell returned again to its RMP after 60 sec.
Cell Culture and Preparation. The mouse hippocampal cell line HT-22 was kindly provided by Dr. David Schubert (The Salk Institute, San Diego, Calif.). Cells were grown in Dulbecco's Modified Eagle Medium (DMEM, high glucose) supplemented with 10% fetal bovine serum (FBS) and 1% antibiotics. The cells were plated on 12 mm cover slips 48 hrs prior to the electrophysiology measurements. The cells on the cover slips were incubated in HBSS (with calcium and magnesium) at room temperature for 10 min prior to measurements. The cover slips were subsequently placed in an open diamond perfision bath (Warner Instruments Corp., RC-22C) positioned on an upright microscope (Nikon eclipse E600FN, 40× water-immersion lens, Burleigh Gibraltar fixed-stage platform) located atop a vibration-isolation table. Cells were routinely perfised with HBSS at a flow rate of 1.0 mllmin.
Electrophysiology. Membrane potential measurements were recorded with an Axon AxoClamp-2A amplifier equipped with a headstage for high resistance electrodes (Axon HS2-XO.OlMU) and Digidata 1322A digitizer (Axon Instruments/Molecular Devices, Sunnyvale, Calif.). Experimental protocols were controlled and data acquired by a personal computer using the Clampex 8.2 software (Axon Instruments). CNPs were inserted into a standard electrode holder until the metal wire of the holder came in contact with the inner carbon film of the CNP. A slight positive pressure was applied through the holder's perfixion port to keep external solution from filling the hollow CNP by capillarity. A micromanipulator (Narishige MHW-3) was used to manipulate and position the CNP electrodes during the electrophysiology measurements. All the electrical measurements were carried out versus an AgIAgCl reference electrode submerged in HBSS in discontinuous current clamp @CC) mode, at zero current, with no capacitance compensation. The CNP potential was nulled (+I-2 mV) with the amplifier offset potential during immersion in HBSS before all electrical measurements. Recorded electrical measurements were not adjusted to compensate for differences in extracellular and intracellular junction potentials.

Structure (SMILES): NCCCC(=O)O [GABA, Y-aminobutyric acid]
- hyperpolarization from the RMP (GABAA receptor; RMP -57 mV, FIG. 10B): 12 mV
- hyperpolarization from the RMP (GABAA receptor; normal HBSS perfusion, RMP -53 mV, FIG. 10A): 10 mV
- time for cell to return to its RMP (GABAA receptor; after 12 mM GABA washed away, FIG. 10B): 60 s
- time for cell to return to its RMP (GABAA receptor; after 12 mM GABA, FIG. 10A): 30 s

Structure (SMILES): [Cl-].[K+] [KCl, Potassium chloride]
- depolarization (HT-22 cells; additional 5 mM K+, RMP -57 mV, FIG. 8C): 10 mV
- depolarization (HT-22 cells; additional 15 mM K+, RMP -57 mV, FIG. 8C): 30 mV
- depolarization (HT-22 cells; additional 15 mM K+, after GABA washout, RMP -57 mV, FIG. 10B): 25 mV
- depolarization (HT-22 cells; additional 25 mM K+, RMP -68 mV, FIG. 8B): 40 mV
- time for cell to return to its RMP (HT-22 cells; after additional 5 mM K+, normal HBSS perfusion, FIG. 8C): ~90 s
- time for cell to return to its RMP (HT-22 cells; after additional 15 mM K+, FIG. 8C): ~90 s
- time for cell to return to its RMP (HT-22 cells; after additional 15 mM K+, constant HBSS perfusion, FIG. 10B): 60 s
